Measured values from patent US4499303A, “Antihyperlipidemic N-benzoylsulfamates, N-benzylsulfamates and benzylsulfonamides” (Research Corporation, priority 1983, dated 1985).
Entries after “also recorded” stand apart in the source; their conditions may differ. Read-outs that look alike come from different tables or passages of the source.

Assays:
Type in all cases: in vivo
[1] = system: Serum Cholesterol; assay: Antihyperlipidemic effect in CF1 male mice: serum cholesterol; conditions: for response vs control in vivo at 20 mg/kg: Mus musculus, ip; for antihypercholesteremic activity (in words): mice, compared with others of Table I
[2] = system: Serum Triglycerides; assay: Antihyperlipidemic effect in CF1 male mice: serum triglycerides; conditions: for response vs control in vivo at 20 mg/kg: Mus musculus, ip, 384 h; for response vs control in vivo at 20 mg/kg / Serum Triglycerides, Day 16: 20 mg/kg/day I.P., CF1 male mice, N = 6, Day 16; for antihypertriglyceridemic activity (in words): mice, compared with others of Table I
Experimental: Serum triglycerides were assayed using the commercially available Bio-Dynamics/bmc Triglyceride Kit on blood collected on the 16th day. By comparison to standards, the mg% of cholesterol and mg/dl of triglycerides were calculated. Treated values are expressed as percent of control.

[3] = system: serum cholesterol; assay: Hypolipidemic effect in rodents at 60 mg/kg/day: serum cholesterol
Excerpt: Of the series of compounds tested thus far, N-(p-chlorobenzoyl)-sulfamate and (o-chlorobenzyl)-sulfonamide appear to be of the most interest. […]

[4] = system: triglyceride levels; assay: Hypolipidemic effect in rodents at 60 mg/kg/day: triglycerides
Experimental: Of the series of compounds tested thus far, N-(p-chlorobenzoyl)-sulfamate and (o-chlorobenzyl)-sulfonamide appear to be of the most interest. N-(p-chlorobenzoyl)-sulfamic acid sodium salt at 20 mg/kg/day, I.P. lowered serum cholesterol levels 48% and serum triglyceride levels 45% after 16 days dosing.

[5] = system: normal and hyperlipidemic mice; assay: Hypolipidemic effect in normal and hyperlipidemic mice, oral and intraperitoneal; conditions: orally and intraperitoneally
[6] = 216 h, 20 mg/kg/day I.P., CF1 male mice, N = 6, Day 9, read-out: Serum Cholesterol, Day 9
[7] = 384 h, 20 mg/kg/day I.P., CF1 male mice, N = 6, Day 16, read-out: Serum Cholesterol, Day 16
[8] = 20 mg/kg/day, I.P., after 16 days dosing, lowering

Row | SMILES | response vs control in vivo at 20 mg/kg [1, 6] [%] | response vs control in vivo at 20 mg/kg [1, 7] [%] | response vs control in vivo at 20 mg/kg [2] [%] | antihypertriglyceridemic activity (in words) [2] | also measured
1 | COc1cccc(C(=O)NS(=O)(=O)O)c1 [Compound 5] | 86 ± 7 | 72 ± 5 | 80 ± 7 |  | 
2 | O=C(NS(=O)(=O)[O-])c1ccc(Cl)cc1.[Na+] [Compound 2, N-(p-chlorobenzoyl)-sulfamic acid sodium salt] | 57 ± 5 |  | 55 ± 7 | less active in lowering triglyceride levels | lowered serum cholesterol levels [1, 8]: 48%; response vs control in vivo at 20 mg/kg ([1]; 384 h, read-out: Serum Cholesterol, Day 16): 52 ± 6%; antihypercholesteremic activity (in words) [1]: more active than saccharin in lowering serum cholesterol levels; Serum Triglycerides, Day 16 ([2]; listed as p--Cl, sodium salt): 55±7 % Control; lowered serum triglyceride levels [2, 8]: 45%
3 | COc1ccc(C(=O)NS(=O)(=O)O)cc1 [Compound 1] | 63 ± 6 | 60 ± 7 | 65 ± 8 | less active in lowering triglyceride levels | antihypercholesteremic activity (in words) [1]: more active than saccharin in lowering serum cholesterol levels
4 | NS(=O)(=O)Cc1ccccc1Cl [Compound 16, (o-Chlorobenzyl)sulfonamide] | 99 ± 8 | 73 ± 6 | 52 ± 6 | the most active antihypertriglyceridemics in the series | hypolipidemic agent in rodents (in words) [3]: potent hypolipidemic agent in rodents; reducing serum cholesterol levels ([3]; 60/mg/kg/day): 71%; reducing triglyceride levels [4]: 49%; hypolipidemic activity (in words) [5]: effective both in normal and hyperlipidemic mice and is active both orally an intraperitonally
5 | O=C(NS(=O)(=O)O)c1ccccc1Cl [Compound 4] | 78 ± 6 | 51 ± 5 | 86 ± 8 | less active in lowering triglyceride levels | antihypercholesteremic activity (in words) [1]: more active than saccharin in lowering serum cholesterol levels
6 | NS(=O)(=O)Cc1cccc(Cl)c1 [Compound 21] | 92 ± 7 | 77 ± 5 | 71 ± 5 |  | 
7 | O=S(=O)(O)NCc1ccccc1 [Compound 13] | 94 ± 7 | 88 ± 2 | 97 ± 8 |  | 
8 | COc1ccc(CNS(=O)(=O)O)cc1 [Compound 12] | 88 ± 4 | 87 ± 2 | 91 ± 9 |  | 
9 | COc1ccc(CS(N)(=O)=O)cc1 [Compound 19] | 74 ± 8 | 70 ± 5 | 76 ± 7 |  | 
10 | O=S(=O)(O)NCc1ccc(Cl)cc1 [Compound 15] | 94 ± 2 | 93 ± 4 | 79 ± 7 |  | 
11 | CCOC(=O)C(C)(C)Oc1ccc(Cl)cc1 [Clofibrate, reference compound] | 98 ± 7 | 97 ± 9 | 95 ± 7 |  | 
12 | O=C1NS(=O)(=O)c2ccccc21 [Saccharin, reference compound] | 77 ± 6 | 68 ± 7 | 48 ± 6 |  | 
13 | CC(C)c1ccc(C(=O)NS(=O)(=O)O)cc1 [Compound 11] | 90 ± 6 | 77 ± 6 | 49 ± 8 |  | Serum Triglycerides, Day 16 ([2]; listed as p-isopropyl derivative): 49±8 % Control
14 | CC(=O)c1ccc(C(=O)NS(=O)(=O)O)cc1 [Compound 10] | 95 ± 3 | 72 ± 4 | 69 ± 6 |  | 
15 | NS(=O)(=O)Cc1ccc(Cl)cc1 [Compound 22] | 94 ± 7 | 78 ± 8 | 48 ± 4 | equally active with saccharin; also recorded: the most active antihypertriglyceridemics in the series | 
16 | O=S(=O)(O)NCc1ccccc1Cl [Compound 14] | 84 ± 8 | 78 ± 2 | 75 ± 2 | increased antihyertriglyceridemic activity compared to N-benzoylsulfamate 4 | 
17 | O=C(NS(=O)(=O)O)c1ccc(Br)cc1 [Compound 8] | 75 ± 4 | 73 ± 7 | 88 ± 3 |  | 
18 | O=C(NS(=O)(=O)O)c1cccc(Cl)c1 [Compound 3] | 72 ± 5 | 64 ± 6 | 97 ± 7 | less active in lowering triglyceride levels | antihypercholesteremic activity (in words) [1]: more active than saccharin in lowering serum cholesterol levels
19 | NS(=O)(=O)Cc1ccccc1 [Compound 20] | 95 ± 8 | 75 ± 5 | 42 ± 3 | more active than saccharin; also recorded: the most active antihypertriglyceridemics in the series | Serum Triglycerides, Day 16 [2]: 42 % Control
20 | O=C(NS(=O)(=O)O)c1ccccc1 [Compound 7] | 74 ± 6 | 57 ± 5 | 70 ± 6 | less active in lowering triglyceride levels | antihypercholesteremic activity (in words) [1]: more active than saccharin in lowering serum cholesterol levels; antihypercholesteremic activity (in words) ([1]; listed as unsubstituted prototype): quite active
21 | COc1ccccc1CS(N)(=O)=O [Compound 17] | 69 ± 4 | 68 ± 7 | 58 ± 6 |  | antihypercholesteremic activity (in words) [1]: the most active antihypercholesteremic, being equal in activity to saccharin
22 | COc1cccc(CS(N)(=O)=O)c1 [Compound 18] | 84 ± 6 | 79 ± 7 | 42 ± 4 | more active than saccharin; also recorded: the most active antihypertriglyceridemics in the series | Serum Triglycerides, Day 16 [2]: 42 % Control
23 | Cc1ccc(C(=O)NS(=O)(=O)O)cc1 [Compound 9] | 70 ± 3 | 63 ± 3 | 82 ± 4 |  | 
